Several values for one entry are separate records, joined by “and”; a condition that tells them apart may be missing. Equal entries are not always repeated. Toxic doses and inconclusive results are not listed. Rule as the data show it: active = T/C of 150% or more; inactive = T/C below 125%.
Test system: L1210 leukemia ip in BDF1 mice, survival T/C
Test: NCI In Vivo Anticancer Drug Screen. Data for tumor model L1210 Leukemia (intraperitoneal) in B6D2F1 (BDF1) mice
Settings: endpoint: mean survival time, higher = longer survival
Summary of the method: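 Read-out is survival time, reported as the treated-group measurement over the vehicle-control measurement.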

[1] = dose: 25.0 mg/kg/injection, schedule: Q01DX009 (ip), vehicle: saline
[2] = dose: 50.0 mg/kg/injection, schedule: Q01DX009 (ip), vehicle: saline
[3] = dose: 100.0 mg/kg/injection, schedule: Q01DX009 (ip), vehicle: saline
[4] = dose: 25.0 mg/kg/injection, schedule: Q04DX003 (ip), vehicle: saline
[5] = dose: 50.0 mg/kg/injection, schedule: Q04DX003 (ip), vehicle: saline
[6] = dose: 100.0 mg/kg/injection, schedule: Q01DX001 (ip), vehicle: saline
[7] = dose: 100.0 mg/kg/injection, schedule: Q04DX003 (ip), vehicle: saline
[8] = dose: 100.0 mg/kg/injection, schedule: Q01DX001 (ip), vehicle: other
[9] = dose: 200.0 mg/kg/injection, schedule: Q01DX001 (ip), vehicle: other
[10] = dose: 400.0 mg/kg/injection, schedule: Q01DX001 (ip), vehicle: other
[11] = dose: 200.0 mg/kg/injection, schedule: Q04DX003 (ip), vehicle: saline
[12] = dose: 400.0 mg/kg/injection, schedule: Q04DX003 (ip), vehicle: saline
[13] = dose: 100.0 mg/kg/injection, schedule: Q04DX002 (ip), vehicle: Klucel (hydroxypropylcellulose) (HPC)
[14] = dose: 200.0 mg/kg/injection, schedule: Q04DX002 (ip), vehicle: Klucel (hydroxypropylcellulose) (HPC)
[15] = dose: 400.0 mg/kg/injection, schedule: Q04DX002 (ip), vehicle: Klucel (hydroxypropylcellulose) (HPC)
[16] = dose: 100.0 mg/kg/injection, schedule: Q04DX003 (ip), vehicle: Klucel (hydroxypropylcellulose) (HPC)
[17] = dose: 200.0 mg/kg/injection, schedule: Q04DX003 (ip), vehicle: Klucel (hydroxypropylcellulose) (HPC)
[18] = dose: 400.0 mg/kg/injection, schedule: Q04DX003 (ip), vehicle: Klucel (hydroxypropylcellulose) (HPC)

Measured: T/C

Cc1cccc(C(=O)OCc2ccccc2CN(C)C)c1
inactive: dose: 75.0 mg/kg/injection, schedule: Q04DX002 (ip), vehicle: Klucel (hydroxypropylcellulose) (HPC) 91 % of control | dose: 150.0 mg/kg/injection, schedule: Q04DX002 (ip), vehicle: Klucel (hydroxypropylcellulose) (HPC) 94 % of control | dose: 300.0 mg/kg/injection, schedule: Q04DX002 (ip), vehicle: Klucel (hydroxypropylcellulose) (HPC) 94 % of control

C=CS(=O)(=O)CCCCCCCC
inactive: dose: 75.0 mg/kg/injection, schedule: Q01DX001 (ip), vehicle: saline 97 % of control | dose: 75.0 mg/kg/injection, schedule: Q04DX003 (ip), vehicle: other 92 % of control | dose: 150.0 mg/kg/injection, schedule: Q01DX001 (ip), vehicle: saline 89 % of control | dose: 150.0 mg/kg/injection, schedule: Q04DX003 (ip), vehicle: other 100 % of control | dose: 300.0 mg/kg/injection, schedule: Q01DX001 (ip), vehicle: saline 91 % of control | dose: 300.0 mg/kg/injection, schedule: Q04DX003 (ip), vehicle: other 89 % of control

O=CC(NC(=O)c1ccccc1)C(O)C(O)C(O)CO (stereo not given)
inactive: dose: 100.0 mg/kg/injection, schedule: Q01DX001 (ip), vehicle: Klucel (hydroxypropylcellulose) (HPC) 98 % of control | dose: 200.0 mg/kg/injection, schedule: Q01DX001 (ip), vehicle: Klucel (hydroxypropylcellulose) (HPC) 105 % of control | dose: 400.0 mg/kg/injection, schedule: Q01DX001 (ip), vehicle: Klucel (hydroxypropylcellulose) (HPC) 105 % of control

CCOC(=O)N(CCCCCCNC(c1ccccc1)S(=O)(=O)O)c1ccccc1 (stereo not given)
inactive: dose: 6.0 mg/kg/injection, schedule: Q01DX009 (ip), vehicle: saline 109 % of control | dose: 12.0 mg/kg/injection, schedule: Q01DX009 (ip), vehicle: saline 103 % of control | [1] 106 % of control | [2] 97 % of control | dose: 100.0 mg/kg/injection, schedule: Q01DX001 (ip), vehicle: carboxymethylcellulose (CMC) 98 % of control | [3] 86 % of control

CC[N+](CC)(CC)CCCC[N+](CC)(CC)CC
inactive: dose: 12.5 mg/kg/injection, schedule: Q01DX009 (ip), vehicle: water 100 % of control | dose: 25.0 mg/kg/injection, schedule: Q01DX009 (ip), vehicle: water 96 % of control | dose: 50.0 mg/kg/injection, schedule: Q01DX009 (ip), vehicle: water 90 % of control

CN=C(N)N(C)NCc1ccccc1
inactive: [4] 100 % of control | [5] 109 % of control | [6] 97 % of control | [7] 105 % of control

COc1ccc2c(OC)cccc2c1
inactive: dose: 100.0 mg/kg/injection, schedule: Q01DX009 (ip), vehicle: other 87 % of control | dose: 200.0 mg/kg/injection, schedule: Q01DX009 (ip), vehicle: other 91 % of control | dose: 400.0 mg/kg/injection, schedule: Q01DX009 (ip), vehicle: other 91 % of control

O=[N+]([O-])c1ccccc1N=Nc1c(O)[nH]c2ccccc12
inactive: [8] 102 % of control | [9] 98 % of control | [10] 102 % of control

O=C1NC(=O)c2ccccc21
inactive: [1] 94 % of control | [2] 99 % of control | [3] 94 % of control and 96 % of control | [7] 95 % of control | dose: 200.0 mg/kg/injection, schedule: Q01DX009 (ip), vehicle: saline 95 % of control and 108 % of control | [11] 98 % of control | dose: 400.0 mg/kg/injection, schedule: Q01DX009 (ip), vehicle: saline 95 % of control and 96 % of control | [12] 106 % of control

CC(C)=CCc1c(N)nc(N)[nH]c1=O
inactive: [13] 98 % of control | [14] 98 % of control | [15] 106 % of control

CN(C)c1ccc(C(Nc2ccccc2)C(Nc2ccccc2)c2ccc(N(C)C)cc2)cc1 (stereo not given)
inactive: [8] 102 % of control | [9] 87 % of control | [10] 89 % of control

O=C(Nc1ccc([N+](=O)[O-])cc1Cl)Oc1ccc(OCc2ccccc2)cc1
inactive: [16] 91 % of control | [17] 91 % of control | [18] 96 % of control

O=C(Nc1ccc(F)cc1)Nc1ccc(Cl)cc1
inactive: dose: 100.0 mg/kg/injection, schedule: Q04DX003 (ip), vehicle: saline with Tween-80 86 % of control | dose: 200.0 mg/kg/injection, schedule: Q04DX003 (ip), vehicle: saline with Tween-80 86 % of control | dose: 400.0 mg/kg/injection, schedule: Q04DX003 (ip), vehicle: saline with Tween-80 87 % of control

Clc1ccc(/C=N/N=C/c2ccc(Cl)cc2Cl)c(Cl)c1
inactive: [13] 98 % of control | [14] 98 % of control | [15] 102 % of control

CC(COc1cc(Cl)c(Cl)cc1Cl)OC(=O)COc1ccc(Cl)cc1Cl (stereo not given)
inactive: [6] 88 % of control | dose: 200.0 mg/kg/injection, schedule: Q01DX001 (ip), vehicle: saline 95 % of control | dose: 400.0 mg/kg/injection, schedule: Q01DX001 (ip), vehicle: saline 95 % of control

c1ccc(C[n+]2ccc(-c3cc[n+](Cc4ccccc4)cc3)cc2)cc1
inactive: dose: 5.0 mg/kg/injection, schedule: Q01DX001 (ip), vehicle: saline 109 % of control

CCN(CC)C(=O)N1C2CCC1CN(C)C2
inactive: dose: 12.5 mg/kg/injection, schedule: Q01DX009 (ip), vehicle: saline 91 % of control | dose: 12.5 mg/kg/injection, schedule: Q04DX003 (ip), vehicle: saline 103 % of control | [1] 95 % of control | [4] 105 % of control | [2] 86 % of control | [5] 89 % of control

O=C(N/N=C/c1ccc(Cl)cc1Cl)C(O)C(O)C(O)C(O)CO (stereo not given)
inactive: dose: 12.5 mg/kg/injection, schedule: Q04DX003 (ip), vehicle: saline with Tween-80 105 % of control | dose: 25.0 mg/kg/injection, schedule: Q04DX003 (ip), vehicle: saline with Tween-80 101 % of control | dose: 50.0 mg/kg/injection, schedule: Q01DX001 (ip), vehicle: saline with Tween-80 91 % of control | dose: 50.0 mg/kg/injection, schedule: Q01DX009 (ip), vehicle: saline with Tween-80 90 % of control | dose: 50.0 mg/kg/injection, schedule: Q04DX003 (ip), vehicle: saline with Tween-80 96 % of control and 92 % of control | dose: 100.0 mg/kg/injection, schedule: Q01DX001 (ip), vehicle: saline with Tween-80 104 % of control | dose: 100.0 mg/kg/injection, schedule: Q04DX002 (ip), vehicle: saline with Tween-80 92 % of control | dose: 200.0 mg/kg/injection, schedule: Q01DX001 (ip), vehicle: saline with Tween-80 90 % of control | dose: 200.0 mg/kg/injection, schedule: Q04DX002 (ip), vehicle: saline with Tween-80 86 % of control | dose: 400.0 mg/kg/injection, schedule: Q04DX002 (ip), vehicle: saline with Tween-80 97 % of control

CSc1ccc(NC(=O)Oc2ccc(NC(C)=O)cc2)cc1
inactive: dose: 100.0 mg/kg/injection, schedule: Q01DX009 (ip), vehicle: Klucel (hydroxypropylcellulose) (HPC) 98 % of control | dose: 200.0 mg/kg/injection, schedule: Q01DX009 (ip), vehicle: Klucel (hydroxypropylcellulose) (HPC) 106 % of control | dose: 400.0 mg/kg/injection, schedule: Q01DX009 (ip), vehicle: Klucel (hydroxypropylcellulose) (HPC) 98 % of control

CN(C)N=Nc1c[nH]c(=O)[nH]c1=O
inactive: dose: 10.0 mg/kg/injection, schedule: Q01DX001 (ip), vehicle: saline 108 % of control | dose: 20.0 mg/kg/injection, schedule: Q01DX001 (ip), vehicle: saline 120 % of control | dose: 40.0 mg/kg/injection, schedule: Q01DX001 (ip), vehicle: saline 123 % of control

CN(C)C1CCc2ccc3ccccc3c2C1=O (stereo not given)
inactive: [2] 88 % of control

Cc1ccc(N=N/C(=N\Nc2ccc(C)cc2)[N+](=O)[O-])cc1
inactive: dose: 75.0 mg/kg/injection, schedule: Q01DX001 (ip), vehicle: acetone 90 % of control | dose: 150.0 mg/kg/injection, schedule: Q01DX001 (ip), vehicle: acetone 94 % of control and 86 % of control and 89 % of control | dose: 300.0 mg/kg/injection, schedule: Q01DX001 (ip), vehicle: acetone 93 % of control and 87 % of control and 88 % of control

CCOC(/C=C/c1ccccc1)OCC
inactive: [7] 93 % of control | [11] 93 % of control | [12] 98 % of control

Cc1ccc(NC(=O)N(CCO)C2CCCCC2)c([N+](=O)[O-])c1
inactive: [16] 87 % of control | [17] 98 % of control | [18] 96 % of control

Source: PubChem BioAssay AID248 (DTP/NCI, 2004)
